According to patent US6207438A, “Method for preparing a product in particular for preventing and curing skin diseases, and resulting product” (priority 1998, dated 2001):
Values joined by “and” are separate entries in the source; they are usually repeats but may differ in a detail not shown here. Equal values may be shown once.

What was measured:
Micrococcus kristinae = test: microbe, parasite or virus in culture; assay type: cell-based; settings: Rothia kristinae, 48 h, read-out: Factor of increase of the quantity of M. kristinae
Experimental: (§1) Second In Vitro Test Establishing an Effect on Pathogenic and Non-pathogenic Flora
(§2) The effects of an oligosaccharide of a degree of polymerisation close to 10 according to the said first method, and of a chelate of this oligosaccharide+Zn, were evaluated on the non-pathogenic strain Micrococcus kristinae, the pathogenic strain Staphylococcus aureus, and the pathogenic strain Propionibacterium acnes. This latter strain is particularly involved in the irritations occurring in the course of cutaneous acne infections.
(§3) The bacteria are cultured in a saline medium (5.6 g/l of NaCl 2.812 g/l of KH2 PO4), containing pancreatic peptone (5.625 g/l) and extracts of heart/brain (9.843 g/l). The strains M. kristinae and S. aureus are cultured in an aerobic medium, and the strain P. acnes is cultured in an anaerobic medium, either in the presence of 5 g/l of glucose (traditional carbonaceous source) or in the presence of a product according to the invention (oligosaccharide of degree of polymerisation close to 10 alone, or this oligosaccharide forming a chelate with zinc), or in the presence of the medium alone (control cultures). The quantity of bacteria being cultured is evaluated after 48 hours of culturing by turbidimetry at 750 nm.

Propionibacterium acnes = test: microbe, parasite or virus in culture; assay type: cell-based; settings: Cutibacterium acnes, 48 h, read-out: Factor of increase of the quantity of P. acnes
Experimental: as §1, §2, §3

Staphylococcus aureus = test: microbe, parasite or virus in culture; assay type: cell-based; settings: 48 h, read-out: Factor of increase of the quantity of S. aureus
Experimental: as §1, §2, §3

5α reductase (5αR) = target: T1, 5α reductase (5αR) (Canis lupus familiaris, UniProt A0A8I3NQ64); test: Inhibitor effect on 5α reductase of dog prostate extract (radio-chemical method); assay type: biochemical; settings: 0.1 mM
T1 construct: raw extract of dog prostate; from tissue; host or cells: dog prostate, raw extract
T1 sequence (A0A8I3NQ64 1-254): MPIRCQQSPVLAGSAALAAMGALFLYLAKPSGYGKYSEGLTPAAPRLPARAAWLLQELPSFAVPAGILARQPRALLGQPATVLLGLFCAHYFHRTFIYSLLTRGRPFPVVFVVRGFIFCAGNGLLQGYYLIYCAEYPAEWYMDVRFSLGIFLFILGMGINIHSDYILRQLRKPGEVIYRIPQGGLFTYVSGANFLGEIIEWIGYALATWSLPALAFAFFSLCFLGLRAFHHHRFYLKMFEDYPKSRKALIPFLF
From the text: It is known that enzymes of the type 5α reductase (5αR) transform testosterone into 17β-hydrosy-5α-androstan-3-one or […]. This reaction is crucial in the action of androgens. These enzymes are present in the keratinocytes of the epidermis, in the fibroblasts of the dermis, and in the sebaccous glands in particular.
Solutions of the product were created at five times the final concentration used in the reaction, in a citrate-phosphate buffer at 0.1 M and pH=5.6 (buffer used in the 5αR reaction). The 5αR reference inhibitor was finasteride (Chibro-Prosacar®, in 5 mg tablets), and tested at the concentration of 500 μg/ml after dilution in the citrate-phosphate buffer at 0.1 M.
The enzymatic extract used was a raw extract of dog prostate prepared in a tris buffer of 0.1 M/sucrose 20%, pH=7.5. The sample was calibrated in such a way as to transform approximately 0.1 pmole of testosterone with 50 μl of extract (being an arbitrary unit of the enzyme).
The mixtures were incubated for 4 hours at 37° C., then the testosterone and the derivatives formed were extracted by 500 μl of dichloromethane. The fraction of dichloromethane was drawn off, dried under a nitrogen flow, and chromatographed on silica in a dichloromethane/ethyl acetate/methanol system (proportions 85:15:3). The plates obtained were autoradiographed on Kodak MP® films.
The evaluation of the quantity of testosterone transformed was carried out after sectioning the products formed and counting them in liquid scintillation.

O=C[C@H](O)[C@@H](O)[C@H](O)[C@H](O)CO [glucose]
fold induction at 5000 µg/mL (Micrococcus kristinae): 2.2
fold induction at 5000 µg/mL (Propionibacterium acnes): 5.2
fold induction at 5000 µg/mL (Staphylococcus aureus): 1.6

CC(C)(C)NC(=O)[C@H]1CC[C@H]2[C@@H]3CC[C@H]4NC(=O)C=C[C@]4(C)[C@H]3CC[C@]12C [finasteride]
Mean (cpm total) (5α reductase (5αR)): 1080 cpm
Mean e - T (5α reductase (5αR)): 647 cpm
inhibition at 100 µM (5α reductase (5αR)): 85%
cpm ASD (5α reductase (5αR); listed as F): 880 cpm and 748 cpm and 647 cpm
cpm DHT (5α reductase (5αR); listed as F): 343 cpm and 262 cpm and 359 cpm
cpm total (5α reductase (5αR); listed as F): 1223 cpm and 1010 cpm and 1006 cpm
activity at 100 µM (5α reductase (5αR); pH 5.6, enzyme control = 100): 15%
